# Source: PMC3702004, “Comparison of Intake and Systemic Relative Effect Potencies of Dioxin-like Compounds in Female Mice after a Single Oral Dose” (Environmental Health Perspectives, 2013)
# Where two headings read alike, the source gives them in different places.
# Key:
# [1] = Body and organ weight, hepatic lipid content; type: in vivo, female C57BL/6 mice; conditions: day 3; for % lipid / g liver: pooled liver samples
# [2] = Compound analysis: liver, adipose and plasma concentrations 3 days after a single oral dose; type: in vivo, female C57BL/6 mice; conditions: for Liver:adipose ratio: based on ng/g tissue, day 3; for concentration at 3 days: female, C57BL/6, mouse, in vivo, po
# [3] = oral dose 0.5 µg/kg bw, 3 days after single oral dose
# [4] = oral dose 2.5 µg/kg bw, 3 days after single oral dose
# [5] = oral dose 10 µg/kg bw, 3 days after single oral dose
# [6] = oral dose 25 µg/kg bw, 3 days after single oral dose
# [7] = oral dose 100 µg/kg bw, 3 days after single oral dose
structure (smiles),measurement,setting,value
"Clc1cc2c(cc1Cl)Oc1cc(Cl)c(Cl)cc1O2 [TCDD, 2,3,7,8-tetrachlorodibenzodioxin, reference compound]",Body weight,[1]; oral dose 0.5 µg/kg bw,19.3 ± 0.8 gram
same,Liver weight,[1]; oral dose 0.5 µg/kg bw,5.08 ± 0.27 % of bw
same,Spleen weight,[1]; oral dose 0.5 µg/kg bw,0.34 ± 0.05 % of bw
same,Thymus weight,[1]; oral dose 0.5 µg/kg bw,0.28 ± 0.06 % of bw
same,% lipid / g liver,[1]; oral dose 0.5 µg/kg bw,5.3%
same,Body weight,[1]; oral dose 2.5 µg/kg bw,19.2 ± 1.3 gram
same,Liver weight,[1]; oral dose 2.5 µg/kg bw,5.37 ± 0.20 % of bw
same,Spleen weight,[1]; oral dose 2.5 µg/kg bw,0.32 ± 0.05 % of bw
same,Thymus weight,[1]; oral dose 2.5 µg/kg bw,0.23 ± 0.05 % of bw
same,% lipid / g liver,[1]; oral dose 2.5 µg/kg bw,7.2%
same,Body weight,[1]; oral dose 10 µg/kg bw,18.8 ± 1.1 gram
same,Liver weight,[1]; oral dose 10 µg/kg bw,5.49 ± 0.37 % of bw
same,Spleen weight,[1]; oral dose 10 µg/kg bw,0.30 ± 0.04 % of bw
same,Thymus weight,[1]; oral dose 10 µg/kg bw,0.18 ± 0.06 % of bw
same,% lipid / g liver,[1]; oral dose 10 µg/kg bw,7.4%
same,Body weight,[1]; oral dose 25 µg/kg bw,19.6 ± 0.8 gram
same,Liver weight,[1]; oral dose 25 µg/kg bw,5.86 ± 0.22 % of bw
same,Spleen weight,[1]; oral dose 25 µg/kg bw,0.34 ± 0.02 % of bw
same,Thymus weight,[1]; oral dose 25 µg/kg bw,0.23 ± 0.02 % of bw
same,Body weight,[1]; oral dose 100 µg/kg bw,19.4 ± 0.6 gram
same,Liver weight,[1]; oral dose 100 µg/kg bw,6.09 ± 0.44 % of bw
same,Spleen weight,[1]; oral dose 100 µg/kg bw,0.34 ± 0.02 % of bw
same,Thymus weight,[1]; oral dose 100 µg/kg bw,0.19 ± 0.04 % of bw
same,Dose with significant increase in liver weight vs vehicle controls,[1]; single oral dose,≥ 10 µg/kg BW
same,Dose with statistically significant decrease in relative thymus weight vs vehicle controls,[1]; single oral dose,≥ 2.5 μg/kg BW
same,liver:adipose ratio (hepatic sequestration criterion 0.3),"[2]; 3 days after single oral dose, Table 1 doses",> 0.3
same,Liver:adipose ratio,[2]; dose 0.5 μg/kg BW,1.8±0.2
same,Liver:adipose ratio,[2]; dose 2.5 μg/kg BW,2.9±0.5
same,Liver:adipose ratio,[2]; dose 10 μg/kg BW,4.2±0.7
same,concentration at 3 days,"[2]; 0.5 µg/kg bw, oral dose 0.5 µg/kg bw, 3 days after single oral dose, read-out: Adipose concentration",1.8 ± 0.4 ng/g
same,concentration at 3 days,"[2]; 0.5 µg/kg bw, oral dose 0.5 µg/kg bw, 3 days after single oral dose, read-out: Liver concentration",3.3 ± 0.6 ng/g
same,concentration at 3 days,"[2]; 2.5 µg/kg bw, oral dose 2.5 µg/kg bw, 3 days after single oral dose, read-out: Adipose concentration",6.9 ± 1.5 ng/g
same,concentration at 3 days,"[2]; 2.5 µg/kg bw, oral dose 2.5 µg/kg bw, 3 days after single oral dose, read-out: Liver concentration",20 ± 6 ng/g
same,concentration at 3 days,"[2]; 10 µg/kg bw, oral dose 10 µg/kg bw, 3 days after single oral dose, read-out: Adipose concentration",21 ± 3 ng/g
same,concentration at 3 days,"[2]; 10 µg/kg bw, oral dose 10 µg/kg bw, 3 days after single oral dose, read-out: Liver concentration",85 ± 13 ng/g
same,concentration at 3 days,"[2]; 10 µg/kg bw, oral dose 10 µg/kg bw, 3 days after single oral dose, read-out: Plasma concentration",0.053 ng/g
same,concentration at 3 days,"[2]; 25 µg/kg bw, oral dose 25 µg/kg bw, 3 days after single oral dose, read-out: Plasma concentration",0.108 ng/g
same,concentration at 3 days,"[2]; 100 µg/kg bw, oral dose 100 µg/kg bw, 3 days after single oral dose, read-out: Plasma concentration",0.432 ng/g
same,Adipose % dose / g tissue,[2]; [3],18 % dose / g tissue
same,Adipose concentration,[2]; [3],2.1 ± 0.5 ng/g lipid
same,Liver % dose / g tissue,[2]; [3],33 % dose / g tissue
same,Liver concentration,[2]; [3],62 ± 12 ng/g lipid
same,Plasma % dose / g tissue,[2]; [3],0.040 % dose / g tissue
same,Adipose % dose / g tissue,[2]; [4],14 % dose / g tissue
same,Adipose concentration,[2]; [4],7.6 ± 1.7 ng/g lipid
same,Liver % dose / g tissue,[2]; [4],40 % dose / g tissue
same,Liver concentration,[2]; [4],277 ± 83 ng/g lipid
same,Plasma % dose / g tissue,[2]; [4],0.027 % dose / g tissue
same,Adipose % dose / g tissue,[2]; [5],10 % dose / g tissue
same,Adipose concentration,[2]; [5],24 ± 4 ng/g lipid
same,Liver % dose / g tissue,[2]; [5],43 % dose / g tissue
same,Liver concentration,[2]; [5],1152 ± 176 ng/g lipid
same,Plasma % dose / g tissue,[2]; [5],0.027 % dose / g tissue
same,Plasma concentration,[2]; [5],35 ± 6 ng/g lipid
same,Plasma % dose / g tissue,[2]; [6],0.022 % dose / g tissue
same,Plasma concentration,[2]; [6],60 ± 3 ng/g lipid
same,Plasma % dose / g tissue,[2]; [7],0.022 % dose / g tissue
same,Plasma concentration,[2]; [7],240 ± 30 ng/g lipid
